# Assay results reported in patent publication US12503484B2, “Androstane derivatives with activity as pure or predominantly pure stimulators of SERCA2a for the treatment of heart failure” (Seismic Pharmaceuticals, priority 2019, dated 2025).
# Target: dog renal Na^+/K^+ ATPase (Canis lupus familiaris (Dog) (Canis familiaris), UniProt P50997)
# Test: biochemical
# Conditions: IC50 inhibition of dog renal Na+/K+ ATPase, purified dog kidney enzyme
# 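Note: enzyme preincubated with inhibitor 10 min at 37 °C, then K^+ and ^32P-ATP added for 15 min, released ^32P counted, activity relative to untreated control.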
row,SMILES,IC50
1,"C[C@]12CCC(=CCCCN)CC1[C@@H](O)C[C@@H]1[C@@H]2CC[C@]2(C)C(=O)CC[C@@H]12 (mixture of isomers) [CVie209, (EZ)-3-(4-aminobutyliden]-6alpha-hydroxyandrostane-17-one]",0.8 µM
2,"C[C@]12CCC(=CCC3CCNC3)CC1[C@@H](CO)C(=O)C1C2CC[C@]2(C)C(=O)CCC12 (mixture of isomers) [CVie402, (E,Z)-3-[2-(pirrolidin-3yl)ethyliden]-6alpha-hydroxymethylandrostane-7,17-dione]",4.6 µM
3,"C[C@]12CCC(=CCC3CCNCC3)CC1[C@@H](CO)C(=O)C1C2CC[C@]2(C)C(=O)CCC12 (mixture of isomers) [CVie405, (E,Z)-3-[2-(piperidin-4-yl)ethyliden]-6alpha-hydroxymethylandrostane-7,17-dione]",7.9 µM
4,"CNCCCCC=C1CC[C@]2(C)C3CC[C@]4(C)C(=O)CCC4C3[C@H](O)[C@H](CO)C2C1 (mixture of isomers) [CVie406, (E,Z)-3-(5-N-methylaminopentyliden)-6alpha-hydroxymethyl-7alpha-hydroxyandrostane-17-one]",1.9 µM
5,"C[C@]12CC=C(CCCCN)CC1[C@@H](O)CC1C2CC[C@]2(C)C(=O)CCC12 (stereo partly drawn) [CVie207, (E)-3-(4-aminobutyl)-6alpha-hydroxyandrost-2-ene-17-one hydroiodide]",3.9 µM
6,"C[C@]12CC/C(=C\CC3CCNCC3)CC1[C@@H](O)C[C@@H]1[C@@H]2CC[C@]2(C)C(=O)CC[C@@H]12 (stereo partly drawn) [CVie210, (E)-3-[2-(piperidin-4-yl)ethyliden]-6alpha-hydroxyandrostane-17-one]",13.1 µM
7,"C[C@]12CC/C(=C/CC3CCNCC3)CC1[C@@H](O)C[C@@H]1[C@@H]2CC[C@]2(C)C(=O)CC[C@@H]12 (stereo partly drawn) [CVie211, (Z)-3-[2-(piperidin-4-yl)ethyliden]-6alpha-hydroxyandrostane-17-one]",8.3 µM
8,"CNCCCC/C=C1\CC[C@]2(C)C3CC[C@]4(C)C(=O)CCC4C3C(=O)[C@H](CO)C2C1 (stereo partly drawn) [CVie401, (E,Z)-3-(5-N-methylaminopentyliden]-6alpha-hydroxymethylandrostane-7,17-dione]",24 µM
9,C[C@]12CC/C(=C\CC3CNC3)CC1[C@@H](CO)C(=O)C1C2CC[C@]2(C)C(=O)CCC12 (some centres unmarked) [CVie403],2.9 µM
10,"C[C@]12CC[C@H](CCC3CCNC3)CC1[C@@H](CO)C(=O)C1C2CC[C@]2(C)C(=O)CCC12 (stereo partly drawn) [CVie409, 3beta-[2-(pirrolidin-3yl)ethyl]-6alpha-hydroxymethylandrostane-7,17-dione]",3.4 µM
11,"C[C@]12CC[C@H](CCC3CCNC3)CC1[C@@H](CO)[C@@H](O)C1C2CC[C@]2(C)C(=O)CCC12 (stereo partly drawn) [CVie410, 3beta-[2-(pirrolidin-3yl)ethyl]6alpha-hydroxymethyl-7alpha-hydroxyandrostane-17-one]",3.7 µM
